From patent US10947213B1 (Merck Patent GmbH, priority 2015, dated 2021)
Where a name gives a salt, the structure may show the parent alone.

Biological target: T1, TLR7/NFKb HEK cells (Homo sapiens, UniProt Q9NYK1)
T1 construct: expressed in transfected cells; host or cells: HEK cells (TLR7/NFKb reporter line)
T1 sequence (Q9NYK1 27-1049): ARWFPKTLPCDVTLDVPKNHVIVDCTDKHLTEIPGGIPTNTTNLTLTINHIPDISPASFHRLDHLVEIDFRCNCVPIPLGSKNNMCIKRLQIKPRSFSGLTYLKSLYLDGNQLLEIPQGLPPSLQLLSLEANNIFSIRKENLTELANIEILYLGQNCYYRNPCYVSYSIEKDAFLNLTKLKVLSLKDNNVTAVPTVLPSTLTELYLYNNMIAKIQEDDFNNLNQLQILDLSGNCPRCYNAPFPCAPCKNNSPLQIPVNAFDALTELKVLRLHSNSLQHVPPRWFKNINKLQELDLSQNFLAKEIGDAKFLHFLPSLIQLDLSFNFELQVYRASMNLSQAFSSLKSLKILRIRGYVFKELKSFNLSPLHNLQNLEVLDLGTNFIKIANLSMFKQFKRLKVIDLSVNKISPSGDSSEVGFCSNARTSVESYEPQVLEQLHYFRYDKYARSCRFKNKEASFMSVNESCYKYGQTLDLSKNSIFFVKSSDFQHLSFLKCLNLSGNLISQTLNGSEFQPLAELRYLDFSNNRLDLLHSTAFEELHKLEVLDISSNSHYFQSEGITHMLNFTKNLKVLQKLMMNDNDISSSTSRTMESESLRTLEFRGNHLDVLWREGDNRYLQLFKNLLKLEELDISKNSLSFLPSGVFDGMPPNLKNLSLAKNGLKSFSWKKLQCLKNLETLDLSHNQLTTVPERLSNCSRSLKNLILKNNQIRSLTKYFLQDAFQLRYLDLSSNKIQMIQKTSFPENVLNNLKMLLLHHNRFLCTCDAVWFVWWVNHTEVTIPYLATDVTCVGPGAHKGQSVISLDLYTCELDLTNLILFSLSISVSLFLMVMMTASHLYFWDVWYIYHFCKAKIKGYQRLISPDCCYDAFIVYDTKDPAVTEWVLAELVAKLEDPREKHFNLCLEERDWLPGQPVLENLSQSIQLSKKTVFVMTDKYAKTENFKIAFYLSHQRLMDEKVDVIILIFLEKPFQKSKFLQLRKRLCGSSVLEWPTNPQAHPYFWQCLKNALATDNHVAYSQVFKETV
Assay: HEK Cell Assay (TLR7/NFKb reporter, Steady-Glo luciferase readout)
Type: cell-based
Conditions: 30 min compound preincubation, then R*48 agonist for 5 hours, read-out: Potency
Procedure, shortened: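 Steady-Glo luminescence after 5 h stimulation with R*48 agonist, following 30 min compound preincubation. Assay run in HEK cells carrying a TLR7/NFKb luciferase reporter, plated at 5000 cells/well and grown 24 h at 37° C (10% CO2) before treatment.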

SMILES | IC50 [nM]
CCN(C)CCNC(=O)C1CCN(c2ccc(C#N)c3ncccc23)CC1 [Compound 416, 1-(8-Cyano-quinolin-5-yl)-piperidine-4-carboxylic Acid [2-(ethyl-methyl-amino)-ethyl]-amide] | < 1000
CCC(C)C(=O)N[C@@H]1C[C@H](C)CN(c2ccnc3nccnc23)C1 (single isomer, unassigned) [Compound 157] | > 10000
N#Cc1ccc(N2CCC(C(=O)NCCN3CCCCC3)CC2)c2nccnc12 [Compound 440, 1-(8-Cyano-quinoxalin-5-yl)-piperidine-4-carboxylic Acid (2-piperidin-1-yl-ethyl)-amide] | < 1000
C[C@H]1C[C@@H](N)CN(c2ncc(F)c3nccnc23)C1 [Compound 459, (3R,5S)-1-(8-Fluoro-pyrido[3,4-b]pyrazin-5-yl)-5-methyl-piperidin-3-ylamine hydrochloride] | 1000 to 10000
CCN1CCC[C@H]1C(=O)NCC1CCN(c2ccc(C#N)c3ncccc23)CC1 [Compound 435, (S)-1-Ethyl-pyrrolidine-2-carboxylic Acid [1-(8-cyano-quinolin-5-yl)-piperidin-4-ylmethyl]-amide] | < 1000
N#Cc1ccc(N2CC(NC(=O)C(N)C(F)(F)F)CC(C3CC3)C2)c2nccnc12 (single isomer, unassigned) [Compound 177] | 1000 to 10000
CC(C)[C@H](O)C(=O)NC1CC(C(F)(F)F)CN(c2ccc(C#N)c3nccnc23)C1 (single isomer, unassigned) [Compound 87] | < 1000
CC1(C)C[C@@H](NC(=O)C(N)C(F)(F)F)CN(c2ccc(C#N)c3nccnc23)C1 (single isomer, unassigned) [Compound 212] | 1000 to 10000
CC1CCCC(C)N1CCNC(=O)C1CCN(c2ccc(C#N)c3ncccc23)CC1 (stereo not drawn) [Compound 414, 1-(8-Cyano-quinolin-5-yl)-piperidine-4-carboxylic Acid [2-(2,6-dimethyl-piperidin-1-yl)-ethyl]-amide] | < 1000
C[C@H]1C[C@@H](NC2CCNC2=O)CN(c2ccc(C#N)c3nccnc23)C1 (stereo partly drawn) [Compound 123, 8-[(3S,5R)-3-methyl-5-[(2-oxopyrrolidin-3-yl)amino]piperidin-1-yl]quinoxaline-5-carbonitrile] | < 1000
Cc1ccc(N2C[C@H](N)C[C@H](C(F)(F)F)C2)c2cccnc12 [Compound 586, (3R,5S)-1-(8-Methyl-quinolin-5-yl)-5-trifluoromethyl-piperidin-3-ylamine hydrochloride] | < 1000
C[C@H]1C[C@@H](NC(=O)NCC2CC(F)(F)C2)CN(c2ccc(C(F)(F)F)c3ncccc23)C1 [Compound 582, 1-(3,3-Difluoro-cyclobutylmethyl)-3-[(3R,5S)-5-methyl-1-(8-trifluoromethyl-quinolin-5-yl)-piperidin-3-yl]-urea] | 1000 to 10000
C[C@H]1C[C@@H](NC(=O)CC2CCN(C)CC2)CN(c2ccc(C(F)(F)F)c3ncccc23)C1 [Compound 244, N-[(3R,5S)-5-methyl-1-[8-(trifluoromethyl)quinolin-5-yl]piperidin-3-yl]-2-(1-methylpiperidin-4-yl)acetamide] | < 1000
CCN(CC)C1CCN(CC2CCN(c3ccnc4ccccc34)CC2)CC1 [Compound 5, N,N-diethyl-1-((1-(quinolin-4-yl)piperidin-4-yl)methyl)piperidin-4-amine] | 1000 to 10000
CC(C(=O)N[C@@H]1C[C@H](C)CN(c2ccc(C(F)F)c3nccnc23)C1)N1CC(O)C1 (stereo partly drawn) [Compound 321, N-[(3R,5S)-1-[8-(difluoromethyl)quinoxalin-5-yl]-5-methylpiperidin-3-yl]-2-(3-hydroxyazetidin-1-yl)propanamide] | 1000 to 10000
C[C@H]1C[C@@H](NC(=O)NC2CC2)CN(c2ccc(C(F)(F)F)c3ncccc23)C1 [Compound 518, 1-Cyclopropyl-3-[(3R,5S)-5-methyl-1-(8-trifluoromethyl-quinolin-5-yl)-piperidin-3-yl]-urea] | < 1000
C[C@H]1C[C@@H](NC(=O)CC2CCN(C)C2)CN(c2ccc(C(F)(F)F)c3nccnc23)C1 (stereo partly drawn) [Compound 295, N-[(3R,5S)-5-methyl-1-[8-(trifluoromethyl)quinoxalin-5-yl]piperidin-3-yl]-2-(1-methylpyrrolidin-3-yl)acetamide] | < 1000

SMILES | IC50 [nM]
C[C@H]1C[C@@H](NC(=O)CC2CN(C)C2)CN(c2ccc(C(F)(F)F)c3nccnc23)C1 [Compound 363, N-[(3R,5S)-5-methyl-1-[8-(trifluoromethyl)quinoxalin-5-yl]piperidin-3-yl]-2-(1-methylazetidin-3-yl)acetamide] | < 1000
C[C@H]1C[C@@H](NC(=O)CN2CC(N)C2)CN(c2ccc(C#N)c3nccnc23)C1 [Compound 356, 2-(3-aminoazetidin-1-yl)-N-[(3R,5S)-1-(8-cyanoquinoxalin-5-yl)-5-methylpiperidin-3-yl]acetamide] | < 1000
C[C@H]1C[C@@H](NC(=O)Cc2c[nH]cn2)CN(c2ccc(C#N)c3nccnc23)C1 [Compound 130, N-[(3R,5S)-1-(8-cyanoquinoxalin-5-yl)-5-methylpiperidin-3-yl]-2-(1H-imidazol-4-yl)acetamide hydrochloride] | < 1000
C[C@H]1C[C@@H](NC(=O)[C@@H](N)Cc2cccnc2)CN(c2ccc(C#N)c3nccnc23)C1 [Compound 116, (2S)-2-amino-N-[(3R,5S)-1-(8-cyanoquinoxalin-5-yl)-5-methylpiperidin-3-yl]-3-(pyridin-3-yl)propanamide] | < 1000
C[C@H]1C[C@@H](NC(=O)CC2CCN(C)C2)CN(c2ccc(C(F)(F)F)c3ncccc23)C1 (stereo partly drawn) [Compound 283, N-[(3R,5S)-5-methyl-1-[8-(trifluoromethyl)quinolin-5-yl]piperidin-3-yl]-2-(1-methylpyrrolidin-3-yl)acetamide hydrochloride] | < 1000
COc1ccc(N2C[C@@H](C)C[C@@H](NC(=O)CN(C)C)C2)c2cccnc12 [Compound 193, 2-(dimethylamino)-N-[(3R,5S)-1-(8-methoxyquinolin-5-yl)-5-methylpiperidin-3-yl]acetamide] | 1000 to 10000
CCN(CC)CC(=O)N(C)CC1CCN(c2ccnc3nccnc23)CC1 [Compound 405, 2-Diethylamino-N-methyl-N-(1-pyrido[2,3-b]pyrazin-8-yl-piperidin-4-ylmethyl)-acetamide] | 1000 to 10000
CC1CC(C(=O)NC2CCCN(C)C2)CN(c2ccc(C#N)c3nccnc23)C1 (stereo not drawn) [Compound 543, cis-1-(8-cyanoquinoxalin-5-yl)-5-methyl-N-(1-methyl-3-piperidyl) piperidine-3-carboxamide] | < 1000
CCN(CC)CCC(=O)NC1CCN(c2ccnc3nccnc23)CC1 [Compound 396, 3-Diethylamino-N-(1-pyrido[2,3-b]pyrazin-8-yl-piperidin-4-yl)-propionamide] | > 10000
CCN(CC)C(=O)CCC(=O)N[C@@H]1C[C@H](C)CN(c2ccc(C(F)(F)F)c3ncccc23)C1 [Compound 575, N,N-Diethyl-N′-[(3R,5S)-5-methyl-1-(8-trifluoromethyl-quinolin-5-yl)-piperidin-3-yl]-succinamide] | 1000 to 10000
CCN(CC)CCNCC1CCN(c2ccnc3ccc(C)cc23)CC1 [Compound 384, N,N-Diethyl-N′-[1-(6-methyl-quinolin-4-yl)-piperidin-4-ylmethyl]-ethane-1,2-diamine] | 1000 to 10000
CN1CCC(CC(=O)NC2CN(c3ccc(C#N)c4nccnc34)CC(F)(F)C2)CC1 (single isomer, unassigned) [Compound 522] | < 1000
COCCN[C@@H]1C[C@H](C)CN(c2ccc(C(F)(F)F)c3ncccc23)C1 [Compound 196, (3R,5S)—N-(2-methoxyethyl)-5-methyl-1-[8-(trifluoromethyl)quinolin-5-yl]piperidin-3-amine] | < 1000
CC(C)[C@H](O)C(=O)NC1CC(C2CC2)CN(c2ccc(C#N)c3nccnc23)C1 (single isomer, unassigned) [Compound 174] | > 10000
C[C@H]1C[C@@H](NC(=O)CC2CCN(C)C2)CN(c2ccc(C(F)F)c3nccnc23)C1 (stereo partly drawn) [Compound 319, N-[(3R,5S)-1-[8-(difluoromethyl)quinoxalin-5-yl]-5-methylpiperidin-3-yl]-2-(1-methylpyrrolidin-3-yl)acetamide] | < 1000
N#Cc1ccc(N2CCC(C(=O)NCCN3CCCCC3)CC2)c2cccnc12 [Compound 403, 1-(8-Cyano-quinolin-5-yl)-piperidine-4-carboxylic acid (2-piperidin-1-yl-ethyl)-amide] | < 1000
